Measured values taken from PubChem BioAssay AID1259407 (Chemical Carcinogenesis Research Information System (CCRIS), 2018).
Calls of active or inactive are those of the source. How the calls were made is not given here.

Test system: CCRIS mutagenicity, Ames/micronucleus/aberration tests
Test: CCRIS mutagenicity studies

Measured: mutagenic call

CCC(C)=O
inactive: Test System: AMES SALMONELLA TYPHIMURIUM, Strain/Indicator: TA97, Metabolic Activation: HAMSTER, LIVER, S-9, AROCLOR 1254 (10 OR 30%), Method: PREINCUBATION inactive; negative | Test System: AMES SALMONELLA TYPHIMURIUM, Strain/Indicator: TA97, Metabolic Activation: NONE, Method: PREINCUBATION inactive; negative | Test System: AMES SALMONELLA TYPHIMURIUM, Strain/Indicator: TA97, Metabolic Activation: RAT, LIVER, S-9, AROCLOR 1254 (10 OR 30%), Method: PREINCUBATION inactive; negative | Test System: AMES SALMONELLA TYPHIMURIUM, Strain/Indicator: TA98, Metabolic Activation: HAMSTER, LIVER, S-9, AROCLOR 1254 (10 OR 30%), Method: PREINCUBATION inactive; negative | Test System: AMES SALMONELLA TYPHIMURIUM, Strain/Indicator: TA98, Metabolic Activation: RAT, LIVER, S-9, AROCLOR 1254 (10 OR 30%), Method: PREINCUBATION inactive; negative | Test System: AMES SALMONELLA TYPHIMURIUM, Strain/Indicator: TA98, Metabolic Activation: RAT, LIVER, S-9, AROCLOR 1254, Method: PREINCUBATION inactive; negative | Test System: AMES SALMONELLA TYPHIMURIUM, Strain/Indicator: TA98, Metabolic Activation: RAT, LIVER, S-9, KC 500, Method: PREINCUBATION inactive; negative | Test System: AMES SALMONELLA TYPHIMURIUM, Strain/Indicator: TA98, Metabolic Activation: RAT, LIVER, S-9, PHENOBARBITAL AND BETA-NAPHTHOFLAVONE, Method: PREINCUBATION inactive; negative | Test System: AMES SALMONELLA TYPHIMURIUM, Strain/Indicator: TA100, Metabolic Activation: HAMSTER, LIVER, S-9, AROCLOR 1254 (10 OR 30%), Method: PREINCUBATION inactive; negative | Test System: AMES SALMONELLA TYPHIMURIUM, Strain/Indicator: TA100, Metabolic Activation: RAT, LIVER, S-9, AROCLOR 1254 (10 OR 30%), Method: PREINCUBATION inactive; negative | Test System: AMES SALMONELLA TYPHIMURIUM, Strain/Indicator: TA100, Metabolic Activation: RAT, LIVER, S-9, AROCLOR 1254, Method: PREINCUBATION inactive; negative | Test System: AMES SALMONELLA TYPHIMURIUM, Strain/Indicator: TA100, Metabolic Activation: RAT, LIVER, S-9, KC 500, Method: PREINCUBATION inactive; negative | Test System: AMES SALMONELLA TYPHIMURIUM, Strain/Indicator: TA100, Metabolic Activation: RAT, LIVER, S-9, PHENOBARBITAL AND BETA-NAPHTHOFLAVONE, Method: PREINCUBATION inactive; negative | Test System: AMES SALMONELLA TYPHIMURIUM, Strain/Indicator: TA102, Metabolic Activation: NONE, Method: PREINCUBATION inactive; negative | Test System: AMES SALMONELLA TYPHIMURIUM, Strain/Indicator: TA102, Metabolic Activation: RAT, LIVER, S-9, PHENOBARBITAL AND BETA-NAPHTHOFLAVONE, Method: PREINCUBATION inactive; negative | Test System: AMES SALMONELLA TYPHIMURIUM, Strain/Indicator: TA104, Metabolic Activation: NONE, Method: PREINCUBATION inactive; negative | Test System: AMES SALMONELLA TYPHIMURIUM, Strain/Indicator: TA104, Metabolic Activation: RAT, LIVER, S-9, PHENOBARBITAL AND BETA-NAPHTHOFLAVONE, Method: PREINCUBATION inactive; negative | Test System: AMES SALMONELLA TYPHIMURIUM, Strain/Indicator: TA1535, Metabolic Activation: HAMSTER, LIVER, S-9, AROCLOR 1254 (10 OR 30%), Method: PREINCUBATION inactive; negative | Test System: AMES SALMONELLA TYPHIMURIUM, Strain/Indicator: TA1535, Metabolic Activation: RAT, LIVER, S-9, AROCLOR 1254 (10 OR 30%), Method: PREINCUBATION inactive; negative | Test System: AMES SALMONELLA TYPHIMURIUM, Strain/Indicator: TA1535, Metabolic Activation: RAT, LIVER, S-9, AROCLOR 1254, Method: PREINCUBATION inactive; negative | Test System: AMES SALMONELLA TYPHIMURIUM, Strain/Indicator: TA1535, Metabolic Activation: RAT, LIVER, S-9, KC 500, Method: PREINCUBATION inactive; negative | Test System: AMES SALMONELLA TYPHIMURIUM, Strain/Indicator: TA1535, Metabolic Activation: RAT, LIVER, S-9, PHENOBARBITAL AND BETA-NAPHTHOFLAVONE, Method: PREINCUBATION inactive; negative | Test System: AMES SALMONELLA TYPHIMURIUM, Strain/Indicator: TA1537, Metabolic Activation: HAMSTER, LIVER, S-9, AROCLOR 1254 (30%), Method: PREINCUBATION inactive; negative | Test System: AMES SALMONELLA TYPHIMURIUM, Strain/Indicator: TA1537, Metabolic Activation: RAT, LIVER, S-9, AROCLOR 1254 (30%), Method: PREINCUBATION inactive; negative | Test System: AMES SALMONELLA TYPHIMURIUM, Strain/Indicator: TA1537, Metabolic Activation: RAT, LIVER, S-9, AROCLOR 1254, Method: PREINCUBATION inactive; negative | Test System: AMES SALMONELLA TYPHIMURIUM, Strain/Indicator: TA1537, Metabolic Activation: RAT, LIVER, S-9, KC 500, Method: PREINCUBATION inactive; negative | Test System: AMES SALMONELLA TYPHIMURIUM, Strain/Indicator: TA1537, Metabolic Activation: RAT, LIVER, S-9, PHENOBARBITAL AND BETA-NAPHTHOFLAVONE, Method: PREINCUBATION inactive; negative | Test System: AMES SALMONELLA TYPHIMURIUM, Strain/Indicator: TA1538, Metabolic Activation: NONE, Method: PREINCUBATION inactive; negative | Test System: AMES SALMONELLA TYPHIMURIUM, Strain/Indicator: TA1538, Metabolic Activation: RAT, LIVER, S-9, AROCLOR 1254, Method: PREINCUBATION inactive; negative | Test System: AMES SALMONELLA TYPHIMURIUM, Strain/Indicator: TA1538, Metabolic Activation: RAT, LIVER, S-9, KC 500, Method: PREINCUBATION inactive; negative | Test System: E. COLI, Strain/Indicator: WP2UVRA/PKM101, Metabolic Activation: NONE, Method: PREINCUBATION inactive; negative | Test System: E. COLI, Strain/Indicator: WP2UVRA/PKM101, Metabolic Activation: RAT, LIVER, S-9, PHENOBARBITAL AND BETA-NAPHTHOFLAVONE, Method: PREINCUBATION inactive; negative | Test System: E. COLI, Strain/Indicator: WP2 UVRA, Metabolic Activation: NONE, Method: PREINCUBATION inactive; negative | Test System: E. COLI, Strain/Indicator: WP2UVRA, Metabolic Activation: NONE, Method: PREINCUBATION inactive; negative | Test System: E. COLI, Strain/Indicator: WP2 UVRA, Metabolic Activation: RAT, LIVER, S-9, KC 500, Method: PREINCUBATION inactive; negative | Test System: E. COLI, Strain/Indicator: WP2UVRA, Metabolic Activation: RAT, LIVER, S-9, PHENOBARBITAL AND BETA-NAPHTHOFLAVONE, Method: PREINCUBATION inactive; negative | Test System: MOUSE LYMPHOMA, Strain/Indicator: L5178Y (TK+/TK-), Metabolic Activation: NONE, Method: SUSPENSION/PLATE inactive; negative | Test System: MOUSE LYMPHOMA, Strain/Indicator: L5178Y (TK+/TK-), Metabolic Activation: RAT, LIVER, S-9, AROCLOR 1242 AND AROCLOR 1254 (2:1), Method: SUSPENSION/PLATE inactive; negative

CN(C)CCN(Cc1ccc(Cl)s1)c1ccccn1
inactive: Test System: AMES SALMONELLA TYPHIMURIUM, Strain/Indicator: TA98, Metabolic Activation: HAMSTER, LIVER, S-9, AROCLOR 1254 (10%), Method: PREINCUBATION inactive; negative | Test System: AMES SALMONELLA TYPHIMURIUM, Strain/Indicator: TA98, Metabolic Activation: NONE, Method: PREINCUBATION inactive; negative | Test System: AMES SALMONELLA TYPHIMURIUM, Strain/Indicator: TA98, Metabolic Activation: RAT, LIVER, S-9, AROCLOR 1254 (10%), Method: PREINCUBATION inactive; negative | Test System: AMES SALMONELLA TYPHIMURIUM, Strain/Indicator: TA100, Metabolic Activation: HAMSTER, LIVER, S-9, AROCLOR 1254 (10%), Method: PREINCUBATION inactive; negative | Test System: AMES SALMONELLA TYPHIMURIUM, Strain/Indicator: TA100, Metabolic Activation: NONE, Method: PREINCUBATION inactive; negative | Test System: AMES SALMONELLA TYPHIMURIUM, Strain/Indicator: TA100, Metabolic Activation: RAT, LIVER, S-9, AROCLOR 1254 (10%), Method: PREINCUBATION inactive; negative | Test System: AMES SALMONELLA TYPHIMURIUM, Strain/Indicator: TA1535, Metabolic Activation: HAMSTER, LIVER, S-9, AROCLOR 1254 (10%), Method: PREINCUBATION inactive; negative | Test System: AMES SALMONELLA TYPHIMURIUM, Strain/Indicator: TA1535, Metabolic Activation: NONE, Method: PREINCUBATION inactive; negative | Test System: AMES SALMONELLA TYPHIMURIUM, Strain/Indicator: TA1535, Metabolic Activation: RAT, LIVER, S-9, AROCLOR 1254 (10%), Method: PREINCUBATION inactive; negative | Test System: AMES SALMONELLA TYPHIMURIUM, Strain/Indicator: TA1537, Metabolic Activation: HAMSTER, LIVER, S-9, AROCLOR 1254 (10%), Method: PREINCUBATION inactive; negative | Test System: AMES SALMONELLA TYPHIMURIUM, Strain/Indicator: TA1537, Metabolic Activation: NONE, Method: PREINCUBATION inactive; negative | Test System: AMES SALMONELLA TYPHIMURIUM, Strain/Indicator: TA1537, Metabolic Activation: RAT, LIVER, S-9, AROCLOR 1254 (10%), Method: PREINCUBATION inactive; negative
